Target: T1, human mAChR M4 (Homo sapiens, UniProt P08173)
T1 construct: expressed in transfected cells; host or cells: CHO-K1 (ATCC), stably co-expressing chimeric G protein Gqi5
T1 sequence (P08173 1-479): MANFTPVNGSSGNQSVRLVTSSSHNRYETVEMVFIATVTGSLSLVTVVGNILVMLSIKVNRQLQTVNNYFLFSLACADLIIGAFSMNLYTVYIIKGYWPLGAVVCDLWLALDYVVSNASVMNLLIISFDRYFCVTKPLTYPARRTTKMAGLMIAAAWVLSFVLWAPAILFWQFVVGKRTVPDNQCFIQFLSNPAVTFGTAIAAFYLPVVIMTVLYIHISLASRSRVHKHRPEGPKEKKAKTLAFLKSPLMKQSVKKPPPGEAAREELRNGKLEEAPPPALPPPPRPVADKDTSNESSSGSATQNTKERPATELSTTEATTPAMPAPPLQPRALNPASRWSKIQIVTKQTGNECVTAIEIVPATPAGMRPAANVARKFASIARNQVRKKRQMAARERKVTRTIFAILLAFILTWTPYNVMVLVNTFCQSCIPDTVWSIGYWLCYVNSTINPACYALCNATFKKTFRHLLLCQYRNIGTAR
Assay: mAChR M4 cell-based functional assay (calcium mobilization, EC80 acetylcholine), human M4
Conditions: Table 9; for IC50: M4/Gqi5/CHO-K1 cells, decrease of EC80 acetylcholine response; for Emin: human M4, % ACh maximum at 30 μM
Method in brief: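 CHO-K1 cells stably expressing human M4 with chimeric Gqi5; intracellular calcium rise read on FDSS as fluorescence static ratio at 1 Hz. Compounds in 10-point 1:3 dilution series; IC50 taken as concentration-dependent decrease of the EC80 acetylcholine response, four-parameter logistic fit.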

| Structure (SMILES) | IC50 | Emin |
| --- | --- | --- |
| Cc1nn(C)cc1-c1ccc(OCC2C[C@@H]3CN(CCC(C)(C)C)C[C@@H]3C2)nn1 (stereo partly drawn) [Compound 92, (3sR,6aS)-2-(3,3-dimethylbutyl)-5-[[6-(1,3-dimethylpyrazol-4-yl)pyridazin-3-yl]oxymethyl]-3,3a,4,5,6,6a-hexahydro-1H-cyclopenta[c]pyrrole] | 58.3 nM | 4.01% |
| Cc1nn(C)cc1-c1ccc(OCC2C[C@@H]3CN(CC45CC6CC(CC(C6)C4)C5)C[C@@H]3C2)nn1 (stereo partly drawn) [Compound 93, (3aR,6aS)-2-(1-adamantylmethyl)-5-[[6-(1,3-dimethylpyrazol-4-yl)pyridazin-3-yl]oxymethyl]-3,3a,4,5,6,6a-hexahydro-1H-cyclopenta[c]pyrrole] | 82.1 nM | 4.05% |
| CCC(C)CN1C[C@H]2CC(COc3ccc(-c4cn(C)nc4C)nn3)C[C@H]2C1 (stereo partly drawn) [Compound 95, (3aR,6aS)-5-[[6-(1,3-dimethylpyrazol-4-yl)pyridazin-3-yl]oxymethyl]-2-(2-methylbutyl)-3,3a,4,5,6,6a-hexahydro-1H-cyclopenta[c]pyrrole] | 659 nM | 4.74% |
| CCCC(C)CN1C[C@H]2CC(COc3ccc(-c4cn(C)nc4C)nn3)C[C@H]2C1 (stereo partly drawn) [Compound 96, (3aR,6aS)-5-[[6-(1,3-dimethylpyrazol-4-yl)pyridazin-3-yl]oxymethyl]-2-(2-methylpentyl)-3,3a,4,5,6,6a-hexahydro-1H-cyclopenta[c]pyrrole] | 301 nM | 4.62% |
| Cc1nn(C)cc1-c1ccc(OCC2C[C@@H]3CN(CC4CCCCC4)C[C@@H]3C2)nn1 (stereo partly drawn) [Compound 97, (3aR,6aS)-2-(cyclohexylmethyl)-5-[[6-(1,3-dimethylpyrazol-4-yl)pyridazin-3-yl]oxymethyl]-3,3a,4,5,6,6a-hexahydro-1H-cyclopenta[c]pyrrole] | 167 nM | 4.44% |
| Cc1nn(C)cc1-c1ccc(OCC2C[C@@H]3CN(CC4CCOCC4)C[C@@H]3C2)nn1 (stereo partly drawn) [Compound 98, (3aR,6aS)-5-[[6-(1,3-dimethylpyrazol-4-yl)pyridazin-3-yl]oxymethyl]-2-(tetrahydropyran-4-ylmethyl)-3,3a,4,5,6,6a-hexahydro-1H-cyclopenta[c]pyrrole] | 2230 nM | 8.70% |
| Cc1nn(C)cc1-c1ccc(OCC2C[C@@H]3CN(CC4CCCOC4)C[C@@H]3C2)nn1 (stereo partly drawn) [Compound 99, (3aR,6aS)-5-[[6-(1,3-dimethylpyrazol-4-yl)pyridazin-3-yl]oxymethyl]-2-(tetrahydropyran-3-ylmethyl)-3,3a,4,5,6,6a-hexahydro-1H-cyclopenta[c]pyrrole] | 2490 nM | 7.75% |
| Cc1nn(C)cc1-c1ccc(OCC2C[C@@H]3CN(Cc4ccccc4)C[C@@H]3C2)nn1 (stereo partly drawn) [Compound 100, (3aR,6aS)-2-benzyl-5-[[6-(1,3-dimethylpyrazol-4-yl)pyridazin-3-yl]oxymethyl]-3,3a,4,5,6,6a-hexahydro-1H-cyclopenta[c]pyrrole] | 2380 nM | 5.92% |
| Cc1nn(C)cc1-c1ccc(OCC2C[C@@H]3CN(Cc4ccccc4F)C[C@@H]3C2)nn1 (stereo partly drawn) [Compound 101, (3aR,6aS)-5-[[6-(1,3-dimethylpyrazol-4-yl)pyridazin-3-yl]oxymethyl]-2-[(2-fluorophenyl)methyl]-3,3a,4,5,6,6a-hexahydro-1H-cyclopenta[c]pyrrole] | 2540 nM | 6.60% |
| Cc1nn(C)cc1-c1ccc(OCC2C[C@@H]3CN(Cc4ccc(F)cc4)C[C@@H]3C2)nn1 (stereo partly drawn) [Compound 102, (3aR,6aS)-5-[[6-(1,3-dimethylpyrazol-4-yl)pyridazin-3-yl]oxymethyl]-2-[(4-fluorophenyl)methyl]-3,3a,4,5,6,6a-hexahydro-1H-cyclopenta[c]pyrrole] | 2580 nM | 6.62% |
| Cc1nn(C)cc1-c1ccc(OCC2C[C@@H]3CN(Cc4ccccn4)C[C@@H]3C2)nn1 (stereo partly drawn) [Compound 103, (3aR,6aS)-5-[[6-(1,3-dimethylpyrazol-4-yl)pyridazin-3-yl]oxymethyl]-2-(2-pyridylmethyl)-3,3a,4,5,6,6a-hexahydro-1H-cyclopenta[c]pyrrole] | 9870 nM | 14.7% |
| Cc1cccnc1CN1C[C@H]2CC(COc3ccc(-c4cn(C)nc4C)nn3)C[C@H]2C1 (stereo partly drawn) [Compound 104, (3aR,6aS)-5-[[6-(1,3-dimethylpyrazol-4-yl)pyridazin-3-yl]oxymethyl]-2-[(3-methyl-2-pyridyl)methyl]-3,3a,4,5,6,6a-hexahydro-1H-cyclopenta[c]pyrrole] | 1530 nM | 6.78% |
| Cc1nn(C)cc1-c1ccc(OCC2C[C@@H]3CN(Cc4ccc5c(c4)OCO5)C[C@@H]3C2)nn1 (stereo partly drawn) [Compound 105, (3aR,6aS)-2-(1,3-benzodioxol-5-ylmethyl)-5-[[6-(1,3-dimethylpyrazol-4-yl)pyridazin-3-yl]oxymethyl]-3,3a,4,5,6,6a-hexahydro-1H-cyclopenta[c]pyrrole] | 329 nM | 5.63% |
| CC(C)(C)CCN1C[C@H]2CC(COc3ccc(-c4cc(F)ccc4Cl)nn3)C[C@H]2C1 (stereo partly drawn) [Compound 106, (3aR,6aS)-5-[[6-(2-chloro-5-fluoro-phenyl)pyridazin-3-yl]oxymethyl]-2-(3,3-dimethylbutyl)-3,3a,4,5,6,6a-hexahydro-1H-cyclopenta[c]pyrrole] | 143 nM | 3.60% |
| Fc1ccc(Cl)c(-c2ccc(OCC3C[C@@H]4CN(CC56CC7CC(CC(C7)C5)C6)C[C@@H]4C3)nn2)c1 (stereo partly drawn) [Compound 107, (3aR,6aS)-2-(1-adamantylmethyl)-5-[[6-(2-chloro-5-fluoro-phenyl)pyridazin-3-yl]oxymethyl]-3,3a,4,5,6,6a-hexahydro-1H-cyclopenta[c]pyrrole] | 1090 nM | 5.03% |
| Fc1ccc(Cl)c(-c2ccc(OCC3C[C@@H]4CN(CC5CC6C=CC5C6)C[C@@H]4C3)nn2)c1 (stereo partly drawn) [Compound 108, (3aR,6aS)-2-(5-bicyclo[2.2.1]hept-2-enylmethyl)-5-[[6-(2-chloro-5-fluoro-phenyl)pyridazin-3-yl]oxymethyl]-3,3a,4,5,6,6a-hexahydro-1H-cyclopenta[c]pyrrole] | 134 nM | 3.90% |
| CCC(C)CN1C[C@H]2CC(COc3ccc(-c4cc(F)ccc4Cl)nn3)C[C@H]2C1 (stereo partly drawn) [Compound 109, (3aR,6aS)-5-[[6-(2-chloro-5-fluoro-phenyl)pyridazin-3-yl]oxymethyl]-2-(2-methylbutyl)-3,3a,4,5,6,6a-hexahydro-1H-cyclopenta[c]pyrrole] | 583 nM | 4.62% |
| CCCC(C)CN1C[C@H]2CC(COc3ccc(-c4cc(F)ccc4Cl)nn3)C[C@H]2C1 (stereo partly drawn) [Compound 110, (3aR,6aS)-5-[[6-(2-chloro-5-fluoro-phenyl)pyridazin-3-yl]oxymethyl]-2-(2-methylpentyl)-3,3a,4,5,6,6a-hexahydro-1H-cyclopenta[c]pyrrole] | 773 nM | 4.60% |
| Fc1ccc(Cl)c(-c2ccc(OCC3C[C@@H]4CN(CC5CCCCC5)C[C@@H]4C3)nn2)c1 (stereo partly drawn) [Compound 111, (3aR,6aS)-5-[[6-(2-chloro-5-fluoro-phenyl)pyridazin-3-yl]oxymethyl]-2-(cyclohexylmethyl)-3,3a,4,5,6,6a-hexahydro-1H-cyclopenta[c]pyrrole] | 443 nM | 3.62% |
| Fc1ccc(Cl)c(-c2ccc(OCC3C[C@@H]4CN(CC5CCOCC5)C[C@@H]4C3)nn2)c1 (stereo partly drawn) [Compound 112, (3aR,6aS)-5-[[6-(2-chloro-5-fluoro-phenyl)pyridazin-3-yl]oxymethyl]-2-(tetrahydropyran-4-ylmethyl)-3,3a,4,5,6,6a-hexahydro-1H-cyclopenta[c]pyrrole] | 609 nM | 4.59% |
| Fc1ccc(Cl)c(-c2ccc(OCC3C[C@@H]4CN(CC5CCCOC5)C[C@@H]4C3)nn2)c1 (stereo partly drawn) [Compound 113, (3aR,6aS)-5-[[6-(2-chloro-5-fluoro-phenyl)pyridazin-3-yl]oxymethyl]-2-(tetrahydropyran-3-ylmethyl)-3,3a,4,5,6,6a-hexahydro-1H-cyclopenta[c]pyrrole] | 860 nM | 4.76% |
| Fc1ccc(Cl)c(-c2ccc(OCC3C[C@@H]4CN(Cc5ccccc5)C[C@@H]4C3)nn2)c1 (stereo partly drawn) [Compound 114, (3aR,6aS)-2-benzyl-5-[[6-(2-chloro-5-fluoro-phenyl)pyridazin-3-yl]oxymethyl]-3,3a,4,5,6,6a-hexahydro-1H-cyclopenta[c]pyrrole] | 2500 nM | 6.02% |
| Fc1ccc(Cl)c(-c2ccc(OCC3C[C@@H]4CN(Cc5ccccc5F)C[C@@H]4C3)nn2)c1 (stereo partly drawn) [Compound 115, (3aR,6aS)-5-[[6-(2-chloro-5-fluoro-phenyl)pyridazin-3-yl]oxymethyl]-2-[(2-fluorophenyl)methyl]-3,3a,4,5,6,6a-hexahydro-1H-cyclopenta[c]pyrrole] | 5660 nM | 9.93% |

Source: patent publication US12577234B2, “Antagonists of the muscarinic acetylcholine receptor M4” (Vanderbilt University, priority 2017, dated 2026)
